Measurements reported in patent US7560468B2, “Substituted 1,4,8-triazaspiro[4,5]decan-2-one compounds” (Gruenenthal GmbH, priority 2004, dated 2009).

Legend:
[1] = system: batrachotoxin (BTX) binding site of the sodium channel; assay: Affinity to the batrachotoxin (BTX) binding site of the sodium channel; details: rat cerebrocortex synaptosomes, [3H]-batrachotoxinin A20 α-benzoate 10 nM; test concentration not given
5-HT transporter = molecular target: T1, 5-HT transporter (Rattus norvegicus, UniProt P31652); assay: Inhibition of 5-HT uptake in synaptosomes; format: biochemical; details: for inhibition at 1 µM: read-out: Uptake_5-HT, rat, 1 μM, % inhibition
T1 construct: from tissue; host or cells: rat brain synaptosomes (marrow/medulla and pons), P2 fraction

human CB2 receptor = human CB2 receptor (Homo sapiens, UniProt P34972); assay: Affinity to the cannabinoid receptor CB2, displacement of [3H]-CP 55,940; details: for inhibition at 10 µM: read-out: Inhibition CB2 10 μM, % inhibition; for Inhibition CB2 10 μM, % inhibition: membranes of HEK 293EBNA cells with human CB2 receptor
Description: The radioligand used was tritium-labeled 5-(1,1-dimethylheptyl)-2-(5-hydroxypropyl)cyclohexyl)-1-alpha,2-beta,5-alpha)-phenol (^[3]H—CP 55,940 with 103.4 of Ci/mmol, 1 m Ci/mL). Determination was carried out in a test buffer comprising 50 mM of Tris-HCl, 2.5 mm of EDTA, 5 mm of MgCl2 and 1.0 mg/mL of fatty acid-free BSA. The test substances were in each case dissolved in DMSO.
The affinity of the compounds of the invention to the CB2 receptor is determined by their ability to displace ^[3]H—CP from 55,940 of CB2 receptors in membranes of HEK 293 EBNA cells. For this purpose 8 μg of membranes (20 mL of a solution of membranes in a concentration of 400 g/ml) are incubated in wells of a microtiter plate with a 0.33 nM of solution of [3]H-CP 55,949 (120 of Ci/mmol) in a total volume of test buffer of 200 μL for 90 minutes at 30° C.
Subsequently, either the test substances or WIN 55,212-2 for determination the non-specific binding are placed, dissolved in each case in dimethyl sulphoxide, in the wells so that in each case a concentration of the relevant substances of 10 μM is obtained.
Incubation is continued for a further 40 minutes at 30° C. dc. […] The filters are washed nine times with 0.5 mL of ice-cold washing buffer (50 nM of Tris-HCl, 5 mM of MgCl2, 2.5 mm of EDTA, 2% of BSA, pH 7.4), air-dried, placed in scintillation liquid, and the radioactivity is determined with the aid of a scintillation counter.
The percentage displacement of the radio-active ligand ^[3]H—CP 55,940 from its binding to the CB2 receptor is indicated as percentage inhibition of the specific binding. In order to determine Ki the IC50 inhibition concentrations are calculated based on of the percentage displacement achieved by the compounds of the general formula I to be tested at various concentrations causing a 50 percent displacement of the radioactive ligands.

NA transporter = assay: Inhibition of noradrenalin uptake in synaptosomes; format: biochemical

human CB2 receptor, sequence (P34972 whole entry): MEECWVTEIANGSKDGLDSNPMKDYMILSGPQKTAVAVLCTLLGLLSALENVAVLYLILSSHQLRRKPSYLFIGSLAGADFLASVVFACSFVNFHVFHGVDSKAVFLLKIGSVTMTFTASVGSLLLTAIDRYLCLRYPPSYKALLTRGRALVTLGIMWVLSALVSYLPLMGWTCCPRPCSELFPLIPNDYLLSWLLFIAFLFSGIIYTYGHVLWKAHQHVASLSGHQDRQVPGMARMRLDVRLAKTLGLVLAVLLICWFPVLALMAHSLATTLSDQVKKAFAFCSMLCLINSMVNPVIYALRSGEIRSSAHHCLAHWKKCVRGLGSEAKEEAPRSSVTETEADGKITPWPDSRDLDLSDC
T1 sequence (P31652 whole entry): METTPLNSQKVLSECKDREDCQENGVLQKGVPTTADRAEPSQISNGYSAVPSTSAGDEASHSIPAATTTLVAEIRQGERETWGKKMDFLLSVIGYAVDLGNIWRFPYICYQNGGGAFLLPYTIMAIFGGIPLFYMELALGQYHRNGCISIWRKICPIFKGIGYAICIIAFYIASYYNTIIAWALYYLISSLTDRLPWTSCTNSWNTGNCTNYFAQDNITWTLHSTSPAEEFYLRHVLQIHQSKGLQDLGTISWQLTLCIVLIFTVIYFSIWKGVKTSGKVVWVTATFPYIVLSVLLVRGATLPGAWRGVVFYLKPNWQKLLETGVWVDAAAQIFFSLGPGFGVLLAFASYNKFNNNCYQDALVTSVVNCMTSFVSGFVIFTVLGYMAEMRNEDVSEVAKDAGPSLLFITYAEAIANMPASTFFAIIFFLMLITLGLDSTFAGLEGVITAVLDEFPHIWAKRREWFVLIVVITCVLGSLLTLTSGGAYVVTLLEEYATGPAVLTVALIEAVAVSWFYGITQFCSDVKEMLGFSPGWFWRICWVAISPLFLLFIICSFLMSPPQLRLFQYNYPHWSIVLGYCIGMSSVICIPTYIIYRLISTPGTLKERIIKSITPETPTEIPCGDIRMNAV

Row | SMILES | BTX Inhibition [1] | inhibition at 1 µM (5-HT transporter) | inhibition at 10 µM (human CB2 receptor) | Uptake_5-HT, rat, 1 μM, % inhibition (5-HT transporter) | Inhibition CB2 10 μM, % inhibition (human CB2 receptor) | Uptake (NA), rat, 10 μM, % inhibition (NA transporter)
1 | O=C1C(Cc2ccccc2)NC2(CCN(S(=O)(=O)c3cccs3)CC2)N1Cc1ccccc1 (centres unmarked) [Example 16, 1,3-Dibenzyl-8-(thiophen-2-sulfonyl)-1,4,8-triazaspiro[4,5]decan-2-one] | 50 | 82% | 58% |  |  | 
2 | O=C1C(Cc2ccccc2)NC2(CCN(S(=O)(=O)c3cc(Cl)sc3Cl)CC2)N1Cc1ccccc1 (centres unmarked) [Example 20, 1,3-Dibenzyl-8-(2,5-dichlorothiophen-3-sulfonyl)-1,4,8-triazaspiro[4,5]decan-2-one] | 54 | 81% | 66% |  |  | 
3 | Cc1cc(C)c(C)c(S(=O)(=O)N2CCC3(CC2)NC(Cc2ccccc2)C(=O)N3Cc2ccccc2)c1C (centres unmarked) [Example 24, 1,3-Dibenzyl-8-(2,3,5,6-tetramethylbenzolsulfonyl)-1,4,8-triazaspiro[4,5]decan-2-one] | 67 |  |  | 66% | 56% | 
4 | CCCCN1C(=O)C(Cc2ccccc2)NC12CCN(S(=O)(=O)c1ccc(C(C)(C)CC)cc1)CC2 (centres unmarked) [Example 28, 3-Benzyl-1-butyl-8-[4-(1,1-dimethylpropyl)benzolesulfonyl]-1,4,8-triazaspiro[4,5]decan-2-one] | 41 |  |  | 75% | 40% | 
5 | COc1cc(C)c(S(=O)(=O)N2CCC3(CC2)NC(Cc2ccccc2)C(=O)N3Cc2ccccc2)c(C)c1C (centres unmarked) [Example 31, 1,3-Dibenzyl-8-(4-methoxy-2,3,6-trimethylbenzolsulfonyl)-1,4,8-triazaspiro[4,5]decan-2-one] | 82 |  |  | 67% | 57% | 
6 | CCc1ccc(S(=O)(=O)N2CCC3(CC2)NC(Cc2ccccc2)C(=O)N3Cc2ccccc2)cc1 (centres unmarked) [Example 35, 1,3-Dibenzyl-8-(4-ethylbenzolsulfonyl)-1,4,8-triazaspiro[4,5]decan-2-one] | 54 |  |  | 79% | 61% | 
7 | CCCCN1C(=O)C(Cc2ccccc2)NC12CCN(S(=O)(=O)c1cccc(Cl)c1)CC2 (centres unmarked) [Example 36, 3-Benzyl-1-butyl-8-(3-chlorobenzolsulfonyl)-1,4,8-triazaspiro[4,5]decan-2-one] | 49 |  |  | 65% | 40% | 
8 | O=C1C(Cc2ccccc2)NC2(CCN(S(=O)(=O)c3ccc([N+](=O)[O-])cc3)CC2)N1Cc1ccccc1 (centres unmarked) [Example 43, 1,3-Dibenzyl-8-(4-nitrobenzolsulfonyl)-1,4,8-triazaspiro[4,5]decan-2-one] | 51 |  |  | 71% | 62% | 
9 | CCOC(=O)CN1C(=O)C(Cc2ccccc2)NC12CCN(S(=O)(=O)c1ccc(OC)cc1)CC2 (centres unmarked) [Example 50, Ethyl[3-benzyl-8-(4-methoxy-benzolsulfonyl)-2-oxo-1,4,8-triazaspiro[4,5]dec-1-yl]-acetate] | 32 |  |  | 79% | 52% | 38%
10 | C=CCN1C(=O)C(CCSC)NC12CCN(S(=O)(=O)c1ccccc1S(C)(=O)=O)CC2 (centres unmarked) [Example 54, 1-Allyl-8-(2-methansulfonylbenzolsulfonyl)-3-(2-methylsulfanylethyl)-1,4,8-triazaspiro[4,5]decan-2-one] |  |  |  | 30% | 56% | 46%
11 | CCCCOc1ccc(S(=O)(=O)N2CCC3(CC2)NC(Cc2ccccc2)C(=O)N3CC(=O)OCC)cc1 (centres unmarked) [Example 73, Ethyl[3-benzyl-8-(4-butoxy-benzolsulfonyl)-2-oxo-1,4,8-triazaspiro[4,5]dec-1-yl]-acetate] | 52 |  |  | 80% | 46% | 
12 | CSCCC1NC2(CCN(S(=O)(=O)c3ccccc3Cl)CC2)N(Cc2ccccc2[N+](=O)[O-])C1=O (centres unmarked) [Example 82, 8-(2-Chlorobenzolsulfonyl)-3-(2-methylsulfanylethyl)-1-(2-nitrobenzyl)-1,4,8-triazaspiro[4,5]decan-2-one] | 71 |  |  | 49% | 56% | 
13 | CSCCC1NC2(CCN(C(=S)Nc3cc(C(F)(F)F)ccc3Cl)CC2)N(Cc2ccccc2C#N)C1=O (centres unmarked) [Example 147, 1-(2-Cyanobenzyl)-3-(2-methylsulfanylethyl)-2-oxo-1,4,8-triazaspiro[4,5]decan-8-thiocarboxylic acid (2-chloro-5-trifluoromethylbenzol)amide] | 81 |  |  | 33% | 48% | 
14 | O=C1C(Cc2ccccc2)NC2(CCN(C(=S)NCC3CCCCC3)CC2)N1Cc1ccccc1F (centres unmarked) [Example 171, 3-Benzyl-1-(2-fluorobenzyl)-2-oxo-1,4,8-triazaspiro[4,5]decan-8-thiocarboxylic acid cyclohexylmethylamide] | 86 |  | 41% |  |  | 34%
15 | CC(C)C1NC2(CCN(C(=S)NCc3ccc(F)cc3)CC2)N(Cc2ccccc2)C1=O (centres unmarked) [Example 179, 1-Benzyl-3-isopropyl-2-oxo-1,4,8-triazaspiro[4,5]decan-8-thiocarboxylic acid 4-fluorobenzylamide] | 58 | 47% | 43% |  |  | 
16 | CSCCC1NC2(CCN(C(=S)NCc3ccc(F)cc3)CC2)N(Cc2ccc(F)cc2)C1=O (centres unmarked) [Example 182, 1-(4-Fluorobenzyl)-3-(2-methylsulfanylethyl)-2-oxo-1,4,8-triazaspiro[4,5]decan-8-thiocarboxylic acid 4-fluorobenzylamide] | 69 | 30% | 64% |  |  | 
17 | O=C1C(Cc2ccccc2)NC2(CCN(C(=S)Nc3c(Cl)cccc3Cl)CC2)N1Cc1ccccc1F (centres unmarked) [Example 187, 3-Benzyl-1-(2-fluorobenzyl)-2-oxo-1,4,8-triazaspiro[4,5]decan-8-thiocarboxylic acid (2,6-dichlorobenzol)amide] | 86 |  |  | 54% | 84% | 39%
18 | O=C1C(Cc2ccccc2)NC2(CCN(C(=S)Nc3cc(C(F)(F)F)ccc3Cl)CC2)N1Cc1ccccc1F (centres unmarked) [Example 188, 3-Benzyl-1-(2-fluorobenzyl)-2-oxo-1,4,8-triazaspiro[4,5]decan-8-thiocarboxylic acid (2-chloro-5-trifluoromethylbenzol)amide] | 77 |  |  | 59% | 49% | 
19 | CCOc1ccc(NC(=O)N2CCC3(CC2)NC(CCSC)C(=O)N3Cc2ccc3ccccc3c2)cc1 (centres unmarked) [Example 231, 3-(2-Methylsulfanylethyl)-1-naphthalin-2-ylmethyl-2-oxo-1,4,8-triazaspiro[4,5]decan-8-carboxylic acid (4-ethoxy-benzol)amide] | 79 |  |  | 59% | 49% | 
